Test results reported in patent US7169932B2 (priority 2001, dated 2007).

Experiments:
HIV-1 = experiment: Cytopathic Effect (CPE) Inhibition Assay (XTT dye reduction); assay type: cell-based; settings: Human immunodeficiency virus 1, 144 h, read-out: Ave CPE EC50 (mM)
Method: T-cell lines, CEM-SS, and MT-2, and viruses HIV-1 RF and HIV-1 NL4–3 (pNL4–3) were obtained from the National Institutes of Health (AIDS Research and Reference Reagent Program, Bethesda, Md.).
The ability of compounds to protect cells against HIV infection was measured by the […] dye reduction method, essentially as described (See Pauwels, R. Balzarini, J. Baba, M. Snoeck, R. Schols, D. Herdewijn, P. Desmyter, J. and De Clercq, E. 1988, “Rapid and automated tetrazolium-based colorimetric assay for the detection of anti-HIV compounds,”. J Virol Methods., 20: 309–321 and Weislow, O. S. Kiser, R. Fine, D. L. Bader, J. Shoemaker, R. H. and Boyd, M. R. 1989. “New soluble-formazan assay for HIV-1 cytopathic effects: application to high-flux screening of synthetic and natural products for AIDS-antiviral activity”. J. Natl. Cancer Inst. 81:577–586). Subject cells were infected with test virus at an moi of 0.025 to 0.819 or mock infected with medium only and added at 2×10^4 cells per well into 96 well plates containing half-log dilutions of test compounds. Six days later, 50 μl of XTT (1 mg/ml XTT tetrazolium, […] phenazine methosulfate) was added to the wells and the plate was reincubated for four hours. Viability, as determined by the amount of XTT formazan produced, was quantified spectrophotometrically by absorbance at 450 nm. Data from CPE assays were expressed as the percent of formazan produced in compound-treated cells compared to formazan produced in wells of uninfected, compound-free cells. The fifty percent effective concentration (EC50) was calculated as the concentration of compound that effected an increase in the percentage of formazan production in infected, compound-treated cells to 50% of that produced by uninfected, compound-free cells. The 50% cytotoxicity concentration (CC50) was calculated as the concentration of compound that decreased the percentage of formazan produced in uninfected, compound-treated cells to 50% of that produced in uninfected, compound-free cells. The therapeutic index was calculated by dividing the cytotoxicity (CC50) by the antiviral activity (EC50).

HIV-1 protease (Q7S) = biological target: T1, HIV-1 protease (Q7S) (Human immunodeficiency virus type 1 group M subtype B, UniProt P04585, Q495S); experiment: HIV-1 Protease RET Assay; assay type: biochemical; settings: Ave. Ki (nM), RET assay, Q7S enzyme, pH 4.8, 37 C
T1 construct: made in house
Method: Ki's for the inhibitors of HIV-1 protease were determined using a resonance energy transfer (RET) assay. […] This enzyme is first partially purified as inclusion bodies from cell lysate. It is then solublized in 8M urea and passed through a Q-Sepharose column (Pharmacia) for further purification. To refold this protein, samples containing Q7S is dialyzed into 50 mM sodium phosphate pH 7.0, 50 mM NaCl, 10 mM DTT, and 10% glycerol.
The commercially available peptide substrate (Molecular Probes Cat. # H-2930) RE(EDANS)SQNYPIVQK(DABCYL)R is used to assess activity and Ki's. This peptide is cleaved quantitatively by HIV-1 Pr at the Tyr-Pro bond. The EDANS fluorophore absorbs at 340 nm and emits at 490 nm. The reaction is carried out in a 96 well plate in a total volume of 100 μL and is run for 12 minutes at 37 C under steady-state conditions with 5 μM substrate and 2 nM active dimer enzyme concentration. The literature value Km for this substrate and enzyme is 103+/−8 μM (See Matayoshi, et al., “Novel Fluorogenic Substrates for Assaying Retroviral Proteases by Resonance Energy Transfer,” Science 247, 954 (1990)). The buffer for this reaction is 0.1M sodium acetate pH 4.8, 1M NaCl, 1 mM EDTA, 5 mM dithiothreitol, 10% dimethyl sulfoxide and 1 mg/ml bovine serum albumin. Inhibition curves are fit using the Morrison tight binding equation.

Compound | EC50 (HIV-1) | Ki (HIV-1 protease (Q7S))
Cc1c(O)cccc1C(=O)N[C@@H](Cc1ccccc1)[C@H](O)C(=O)N1CSC(C)(C)[C@H]1C(=O)NCC(=O)c1ccccc1 [Example A10, (R)-3-((2S,3S)-2-Hydroxy-3-{[1-(3-hydroxy-2-methyl-phenyl)-methanoyl]-amino}-4-phenyl-butanoyl)-5,5-dimethyl-thiazolidine-4-carboxylic acid (2-oxo-2-phenyl-ethyl)-amide] | > 1000 nM | 51 nM
Cc1c(O)cccc1C(=O)N[C@@H](Cc1ccccc1)[C@H](O)C(=O)N1CSC(C)(C)[C@H]1C(=O)NCc1ccc(C(F)(F)F)c(F)c1 [Example A11] | 930 nM | 19 nM
Cc1c(O)cccc1C(=O)N[C@@H](Cc1ccccc1)[C@H](O)C(=O)N1CSC(C)(C)[C@H]1C(=O)NCc1ccc(F)cc1C(F)(F)F [Example A12] | 1090 nM | 1.7 nM
Cc1c(O)cccc1C(=O)N[C@@H](Cc1ccccc1)[C@H](O)C(=O)N1CSC(C)(C)[C@H]1C(=O)NCc1ccc(S(C)(=O)=O)cc1 [Example A13, 3-[2-Hydroxy-3-(3-hydroxy-2-methyl-benzoylamino)-4-phenyl-butyryl]-5,5-dimethyl-thiazolidine-4-carboxylic acid 4-methanesulfonyl-benzamide] | > 1000 nM | 44.1 nM
Cc1c(O)cccc1C(=O)N[C@@H](Cc1ccccc1)[C@H](O)C(=O)N1CSC(C)(C)[C@H]1C(=O)NCc1ccc(N(C)C)cc1 [Example A15, (R)-3-((2S,3S)-2-Hydroxy-3-{[1-(3-hydroxy-2-methyl-phenyl)-methanoyl]-amino}-4-phenyl-butanoyl)-5,5-dimethyl-thiazolidine-4-carboxylic acid 4-dimethylamino-benzylamide] | 130 nM | 10.9 nM
Cc1c(O)cccc1C(=O)N[C@@H](Cc1ccccc1)[C@H](O)C(=O)N1CSC(C)(C)[C@H]1C(=O)NCCc1ccccc1 [Example A19, (R)-3-((2S,3S)-2-Hydroxy-3-{[1-(3-hydroxy-2-methyl-phenyl)-methanoyl]-amino}-4-phenyl-butanoyl)-5,5-dimethyl-thiazolidine-4-carboxylic acid phenethyl-amide] | 442 nM | 10 nM
C=CCN(C)C(=O)[C@H]1N(C(=O)[C@@H](O)[C@H](Cc2ccccc2)NC(=O)c2cccc(O)c2C)CSC1(C)C [Example A23, (R)-3-((2S,3S)-2-Hydroxy-3-{[1-(3-hydroxy-2-methyl-phenyl)-methanoyl]-amino}-4-phenyl-butanoyl)-5,5-dimethyl-thiazolidine-4-carboxylic acid allyl-methyl-amide] | 72 nM | 0.65 nM
C#CCN(C)C(=O)[C@H]1N(C(=O)[C@@H](O)[C@H](Cc2ccccc2)NC(=O)c2cccc(O)c2C)CSC1(C)C [Example A27, (R)-3-((2S,3S)-2-Hydroxy-3-{[1-(3-hydroxy-2-methyl-phenyl)-methanoyl]-amino}-4-phenyl-butanoyl)-5,5-dimethyl-thiazolidine-4-carboxylic acid methyl-prop-2-ynyl-amide] | 72 nM | 0.62 nM
C=C(C)CNC(=O)[C@H]1N(C(=O)[C@@H](O)[C@H](Cc2ccccc2)NC(=O)c2cccc(O)c2C)CSC1(C)C [Example A28, (R)-3-((2S,3S)-2-Hydroxy-3-{[1-(3-hydroxy-2-methyl-phenyl)-methanoyl]-amino}-4-phenyl-butanoyl)-5,5-dimethyl-thiazolidine-4-carboxylic acid (2-methyl-allyl)-amide] | 41 nM | < 0.1 nM
Cc1c(O)cccc1C(=O)N[C@@H](Cc1ccccc1)[C@H](O)C(=O)N1CSC(C)(C)[C@H]1C(=O)NCc1cccc(N)c1 [Example A29, (R)-3-((2S,3S)-2-Hydroxy-3-{[1-(3-hydroxy-2-methyl-phenyl)-methanoyl]-amino}-4-phenyl-butanoyl)-5,5-dimethyl-thiazolidine-4-carboxylic acid 3-amino-benzylamide] | 117 nM | < 0.1 nM
C/C=C\CNC(=O)[C@H]1N(C(=O)[C@@H](O)[C@H](Cc2ccccc2)NC(=O)c2cccc(O)c2C)CSC1(C)C [Example A31, (R)-3-((2S,3S)-2-Hydroxy-3-{[1-(3-hydroxy-2-methyl-phenyl)-methanoyl]-amino}-4-phenyl-butanoyl)-5,5-dimethyl-thiazolidine-4-carboxylic acid (Z)-but-2-enylamide] | 41 nM | < 0.1 nM
CC(=O)Nc1cccc(CNC(=O)[C@H]2N(C(=O)[C@@H](O)[C@H](Cc3ccccc3)NC(=O)c3cccc(O)c3C)CSC2(C)C)c1 [Example A33, (R)-3-((2S,3S)-2-Hydroxy-3-{[1-(3-hydroxy-2-methyl-phenyl)-methanoyl]-amino}-4-phenyl-butanoyl)-5,5-dimethyl-thiazolidine-4-carboxylic acid 3-acetylamino-benzylamide] | 577 nM | < 0.1 nM
C/C=C(/C)CNC(=O)[C@H]1N(C(=O)[C@@H](O)[C@H](Cc2ccccc2)NC(=O)c2cccc(O)c2C)CSC1(C)C [Example A34, (R)-3-((2S,3S)-2-Hydroxy-3-{[1-(3-hydroxy-2-methyl-phenyl)-methanoyl]-amino}-4-phenyl-butanoyl)-5,5-dimethyl-thiazolidine-4-carboxylic acid ((Z)-2-methyl-but-2-enyl)-amide] | 36 nM | < 0.1 nM
Cc1c(O)cccc1C(=O)N[C@@H](Cc1ccccc1)[C@H](O)C(=O)N1CSC(C)(C)[C@H]1C(=O)NC/C=C/C(F)(F)F [Example A40, (R)-3-((2S,3S)-2-Hydroxy-3-{[1-(3-hydroxy-2-methyl-phenyl)-methanoyl]-amino}-4-phenyl-butanoyl)-5,5-dimethyl-thiazolidine-4-carboxylic acid ((E)-4,4,4-trifluoro-but-2-enyl)-amide] | 275 nM | 1.2 nM
Cc1c(O)cccc1C(=O)N[C@@H](Cc1ccccc1)[C@H](O)C(=O)N1CSC(C)(C)[C@H]1C(=O)NC(C)(C)C#N [Example A41, (R)-3-((2S,3S)-2-Hydroxy-3-{[1-(3-hydroxy-2-methyl-phenyl)-methanoyl]-amino}-4-phenyl-butanoyl)-5,5-dimethyl-thiazolidine-4-carboxylic acid (1-cyano-1,1-dimethyl-methyl)-amide] | 527 nM | 1.6 nM
CCCOc1cccc(CNC(=O)[C@H]2N(C(=O)[C@@H](O)[C@H](Cc3ccccc3)NC(=O)c3cccc(O)c3C)CSC2(C)C)c1 [Example A43, (R)-3-((2S,3S)-2-Hydroxy-3-{[1-(3-hydroxy-2-methyl-phenyl)-methanoyl]-amino}-4-phenyl-butanoyl)-5,5-dimethyl-thiazolidine-4-carboxylic acid 3-propoxy-benzylamide] | 561 nM | 0.35 nM
Cc1c(O)cccc1C(=O)N[C@@H](Cc1ccccc1)[C@H](O)C(=O)N1CSC(C)(C)[C@H]1C(=O)NCCC(F)(F)F [Example A45, (R)-3-((2S,3S)-2-Hydroxy-3-{[1-(3-hydroxy-2-methyl-phenyl)-methanoyl]-amino}-4-phenyl-butanoyl)-5,5-dimethyl-thiazolidine-4-carboxylic acid (3,3,3-trifluoro-propyl)-amide] | 165 nM | 0.51 nM
Cc1c(O)cccc1C(=O)N[C@@H](Cc1ccccc1)[C@H](O)C(=O)N1CSC(C)(C)[C@H]1C(=O)NCc1ccc(OC(F)(F)F)cc1 [Example A47, (R)-3-((2S,3S)-2-Hydroxy-3-{[1-(3-hydroxy-2-methyl-phenyl)-methanoyl]-amino}-4-phenyl-butanoyl)-5,5-dimethyl-thiazolidine-4-carboxylic acid 4-trifluoromethoxy-benzylamide] | 1810 nM | 2.3 nM
